{"source": "a melting point compilation (Tetko et al.; mined from patent text by program, amines drawn as free bases though some values may be those of a salt)"}
{"units": {"melting point": "°C"}}
{"smiles": "Cc1ccc(S(=O)(=O)OCCCn2c3c(c4ccccc4c2=O)C(=O)c2ccccc2-3)cc1", "melting point": "177 to 179"}
{"smiles": "CC(C)Cn1c(CN)c(-c2ccccc2)c2cc(/C=C/C(N)=O)ccc2c1=O", "melting point": "228 to 230"}
{"smiles": "CC(C)(C)c1cc(-c2nn(C3CCOC3=O)c3ncccc23)cc(C(C)(C)C)c1O", "note": "(centres undefined)", "melting point": "164 to 167"}
{"smiles": "CCN(CC)CCOC(=O)c1ccc2nc3n(c(=O)c2c1)C(C)CC3=Cc1ccccc1", "note": "(centres undefined)", "melting point": "125 to 130"}
{"smiles": "Cc1cc(F)ccc1-c1nc(NC2CCOCC2)nc2c1ccc(=O)n2-c1ccccc1F", "melting point": "211 to 212"}
{"smiles": "CCC12CC(Cl)C3C4CCC(=O)C=C4CCC3C1C(OC(C)=O)CC2=O", "note": "(centres undefined)", "melting point": 125}
{"smiles": "COc1ccc(-n2nc(-c3ccc(C)cc3)c(C(N)=O)c2N)cc1", "melting point": "174 to 175"}
{"smiles": "Nc1c(C(=O)O)cc(Br)nc1Br", "melting point": "251 to 253"}
{"smiles": "O=C(Nc1sc2c(c1C(=O)O)CCOC2)c1nn[nH]n1", "melting point": "> 250"}
{"smiles": "CCOCc1nc2c(N)nc(C)c(C)c2n1NCc1cccnc1", "melting point": "147 to 149"}
{"smiles": "CN1CCN(c2ccc(F)cc2C=C2CCCN(c3ccc(Cl)cc3)C2=O)CC1", "melting point": "158 to 159"}
{"smiles": "O=C(O)COc1ccc(SCc2ccc(OCc3ccc(F)cc3C(F)(F)F)cc2)c2c1CCC2", "melting point": "125 to 127"}
{"smiles": "CC(C)COc1c(-c2ccc(S(C)(=O)=O)cc2)cnn(-c2ccc(F)cc2)c1=O", "melting point": "121 to 128"}
{"smiles": "O=C1c2cc3nnn(Cc4ccccn4)c(=O)c3cc2OC2CCCN12", "note": "(centres undefined)", "melting point": "184 to 186"}
{"smiles": "Cc1ccc(S(=O)(=O)N2CC[C@@H](C(C#N)(c3ccccc3)c3ccccc3)C2)cc1", "melting point": "165 to 178"}
{"smiles": "CC1CCN(C(=O)C(Cc2cc3c(N)nccc3s2)NS(=O)(=O)c2ccc(COC3CCOCC3)cc2)CC1", "note": "(centres undefined)", "melting point": "124 to 128"}
{"smiles": "O=C1CC2(CN1)CC(=O)c1cc(Cl)ccc12", "note": "(centres undefined)", "melting point": "220 to 222"}
{"smiles": "CCCCCCc1ncc(/C=C(\\Cc2cccs2)C(=O)O)n1Cc1ccc(C(=O)O)cc1", "melting point": "210 to 212"}
{"smiles": "O=C1c2ccccc2C(=O)c2c1oc1cc(O)ccc21", "melting point": "> 310"}
{"smiles": "COC(=O)c1ccc(C(=O)c2cc3c(cc2C)OC2(C)C4CCC(C)(C4)C32C)cc1", "note": "(centres undefined)", "melting point": "140 to 142"}
{"smiles": "CC12CCC3c4cc(OCC(F)(F)F)c(O)cc4C(=NO)CC3C1CCC2O", "note": "(centres undefined)", "melting point": "187 to 191"}
{"smiles": "N#Cc1ccc(C=NO)c(Cl)c1", "melting point": "177 to 179"}
{"smiles": "CN(C)c1ccc2cc(-c3ccnc(SCCO)c3C#N)ccc2c1", "melting point": "210 to 212"}
{"smiles": "CC(=O)NC[C@H]1CN(c2ccc(C3CCN(S(C)(=O)=O)CC3)c(F)c2)C(=O)O1", "melting point": "240 to 242"}
{"smiles": "Cc1ccccc1N=C=Nc1ccccc1C", "melting point": "3.5 to 4.5"}
{"smiles": "CCN(CC)CCNC(=O)c1cc(Cl)c2cc(I)ccc2n1", "melting point": "64 to 66"}
{"smiles": "O=C(O)C1=CCCN1C(=O)CCS", "melting point": "94 to 96"}
{"smiles": "CCCn1cc(S(C)=O)c(=O)c2ccccc21", "note": "(centres undefined)", "melting point": "126 to 128"}
{"smiles": "O=C1C=C(NC(=O)C(=O)c2cn(Cc3ccccc3[N+](=O)[O-])c3ccccc23)CO1", "melting point": "257 to 260"}
{"smiles": "CC(C)(C)C1=CC(O)(C(F)(F)F)C(=O)C(C(C)(C)C)=C1", "note": "(centres undefined)", "melting point": "58 to 61"}
{"smiles": "COc1nc(SCC(N)c2ncco2)cnc1NS(=O)(=O)c1cccc(Cl)c1Cl", "note": "(centres undefined)", "melting point": "168 to 170"}
{"smiles": "CCC(C)c1ccccc1SC1=C(O)CC(c2ccccc2)(c2ccccc2)OC1=O", "note": "(centres undefined)", "melting point": "161 to 162"}
{"smiles": "O=C(NCCO)c1cncc(-c2cccc3nn(Cc4cccc(C(F)(F)F)c4)cc23)c1", "melting point": "185 to 186"}
{"smiles": "COc1ccc(C2=NN(c3ccc(CCBr)cc3)C(=O)[C@H]3CC=CC[C@@H]23)cc1OC", "note": "(relative stereo)", "melting point": "126 to 127"}
{"smiles": "COc1ccc(C(CN(C)C)c2nnc3n2-c2ccc(Cl)cc2C(c2ccccc2)=NC3)cc1", "note": "(centres undefined)", "melting point": "138 to 142"}
{"smiles": "COc1cccc(CN[C@@H](C)C2CCCCC2)c1O", "melting point": "65 to 66"}
{"smiles": "CCCOC(=O)c1ccc2c3cccc4cccc(c5ccc(C(=O)OCCC)c1c25)c43", "melting point": 253}
{"smiles": "Cc1c(NC(=O)c2ccc(-c3ccc(F)cc3)cc2)ccc2cc(CN(C)C)cnc12", "melting point": "161 to 163"}
{"smiles": "N#Cc1ccc(Oc2ccccc2)cc1Oc1ccccc1", "melting point": "85 to 86"}
{"smiles": "Cc1c(C2=CCC(Cc3ccccc3)(N(C)C)CC2)[nH]c2ccc(OC(F)(F)F)cc12", "note": "(centres undefined)", "melting point": "74 to 75"}
{"smiles": "Cc1cc(CBr)cc(Oc2nc(Cl)nc(Cl)c2C(C)C)c1", "melting point": "98 to 101"}
{"smiles": "O=C(O)c1cccc([N+](=O)[O-])c1Nc1ccc(Br)cc1", "melting point": "194 to 196"}
{"smiles": "Clc1ccc(Cc2cccc(-c3ncc4c(n3)CCCC4)n2)cn1", "melting point": "115 to 120"}
{"smiles": "Cc1cccc(C)c1-c1cc2cnc(N)nc2n(C)c1=N", "melting point": "197 to 198"}
{"smiles": "NC(=O)C1=NN(c2cccc(COc3ccccc3)c2)C(c2ccccc2)N1", "note": "(centres undefined)", "melting point": "177 to 178"}
{"smiles": "CC(C)c1cc(-c2c3ccccc3c(Br)c3sc4ccccc4c23)cc(C(C)C)c1O[C@H](C)C(=O)O", "melting point": "214 to 215"}
{"smiles": "Cc1cnc(-c2ccc(C(F)(F)F)cc2)n1C", "melting point": 130}
{"smiles": "NC(=O)N1Cc2ccccc2-c2ccccc2C1", "melting point": "212 to 214"}
{"smiles": "CC1(C)COc2ccc(Cl)cc21", "melting point": "64 to 66"}
{"smiles": "CCn1c(-c2ccnc3ccccc23)nc(-c2ccncc2)c1-c1ccc(Cl)cc1", "melting point": "167 to 169"}
{"smiles": "Cc1cc2c(s1)CCCN(CCN1CCN(c3ncccn3)CC1)C2=O", "melting point": "137 to 139"}
{"smiles": "Cc1ccc(Nn2c(-c3ccccc3)c(C)[nH]c2=S)cc1Cl", "melting point": 190}
{"smiles": "COC(=O)c1ccccc1NC(=O)c1c(-c2ccccc2)c(-c2ccc(F)cc2)c(C=O)n1C(C)C", "melting point": "222 to 223"}
{"smiles": "CCOc1ccc(C2=NN(CCCCBr)C(=O)[C@H]3CC=CC[C@@H]23)cc1OCC", "note": "(relative stereo)", "melting point": "73 to 75"}
{"smiles": "Cc1nnc2n1-c1ccc(C#C[Si](C)(C)C)cc1C(c1ccccc1F)=NC2", "melting point": "218 to 219"}
{"smiles": "CN(CC(=O)Nc1cccc(-c2cc(-c3ccccc3O)nc(NC(=O)c3cccs3)c2C#N)c1)C(=O)OC(C)(C)C", "melting point": "143 to 149"}
{"smiles": "CC(=O)[NH+]([O-])C[C@@H]1CN(c2ccc(N3CCN(S(=O)(=O)CC#N)CC3)c(F)c2)C(=O)O1", "note": "(some centres undefined)", "melting point": "153 to 156"}
{"smiles": "CC(C)Sc1c(C(N)=O)sc2ccccc12", "melting point": "183 to 185"}
{"smiles": "Cn1c(=O)sc2ccc(C(c3ccc(C#N)cc3)n3cncn3)cc21", "note": "(centres undefined)", "melting point": "122 to 125"}
{"smiles": "COc1ccc(CN2c3ccc(Cl)cc3C=C(C(=O)O)C2C(F)(F)F)cc1", "note": "(centres undefined)", "melting point": "196 to 197"}
{"smiles": "CCCCSc1ccc(C2CC(=O)C(C(=O)CC)=C(O)C2)cc1[N+](=O)[O-]", "note": "(centres undefined)", "melting point": 102}
{"smiles": "O=C(C1=C(O)C(=O)N(C2CC2)C1)c1ccc(Cc2ccc(F)cc2)o1", "melting point": "158 to 159"}
{"smiles": "Cn1nc(CCc2cc(=O)[nH]c(N)n2)c2ccc(C(=O)NC[C@H](NS(=O)(=O)c3cccc4cnccc34)C(=O)O)cc21", "melting point": "122 to 125"}
{"smiles": "Clc1ccc(-c2ccccc2Cl)nn1", "melting point": "145 to 147"}
{"smiles": "CCOC(=O)CN1C(=O)c2cccc3c(Br)ccc1c23", "melting point": "128 to 130"}
{"smiles": "O=C(Nc1cccc(O)c1)NC1N=C(c2ccccc2F)c2ccccc2N(CC(=O)N2CC3CCC(CC3)C2)C1=O", "note": "(racemic)", "melting point": "184 to 185"}
{"smiles": "COc1cc(/C=C/C(=O)CC(=O)Cc2ccccc2)ccc1O", "melting point": 106}
{"smiles": "O=C(N[C@H]1CN(Cc2ccccc2)[C@@H]2CCO[C@H]12)C(F)(F)F", "note": "(relative stereo)", "melting point": "150 to 154"}
{"smiles": "CC(COc1cccc2oc(C#N)cc(=O)c12)OC=O", "note": "(centres undefined)", "melting point": "113 to 115"}
{"smiles": "CCC(=O)NC/C=C1\\CCc2ncc3c(c21)CCO3", "melting point": "163 to 164"}
{"smiles": "O=c1[nH]c2cc(Br)ccc2c(O)c1-c1ccccc1", "melting point": "343 to 345"}
{"smiles": "O=C(Nc1ccccc1N1CCc2ccccc21)c1ccccc1F", "melting point": "139 to 141"}
{"smiles": "Cn1nc(-c2ccc(C(F)(F)F)cc2)cc1C(=O)O", "melting point": "230 to 232"}
{"smiles": "COC(=O)c1ccc(OCCNC(=O)C2Cc3ccccc3N2S(=O)(=O)c2ccc(-c3ccc(F)cc3)cc2)cc1", "note": "(centres undefined)", "melting point": "70 to 72"}
{"smiles": "Nc1ccc(C2=NCCO2)cc1", "melting point": "163 to 165"}
{"smiles": "CC(C(=O)CCc1ccc(Cl)cc1)n1cncn1", "note": "(centres undefined)", "melting point": "77 to 78"}
{"smiles": "CSc1nc(C)c(Cl)c(Cl)n1", "melting point": "49 to 50"}
{"smiles": "CCN(CC)CCN(CC)C(=O)c1ccccc1Nc1ccnc2c(C(F)(F)F)cccc12", "melting point": "112 to 113"}
{"smiles": "COC(=O)C(=CO)c1ccccc1", "melting point": "33.5 to 35.5"}
{"smiles": "CC(C)(C)OC(=O)CCc1ccc(-c2nc(=O)c3ccccc3s2)nc1", "melting point": "160 to 161"}
{"smiles": "C/C(=C(\\C#N)C(N)=S)N1CCCN(c2ccccc2C)CC1", "melting point": "99 to 100"}
{"smiles": "NCCCCCCCC1OCC2(CO1)COC(CCCCCCCN)OC2", "note": "(centres undefined)", "melting point": "74 to 75"}
{"smiles": "Cc1nc(Cc2ccccc2)c2c(c1O)COC(C(C)C)OC2", "note": "(centres undefined)", "melting point": "193 to 194"}
{"smiles": "CCCCC(=O)Nc1ccn(C2OC(CO)C(O)C2O)c(=O)n1", "note": "(centres undefined)", "melting point": "132 to 135"}
{"smiles": "O=C(O)c1ccc(C(=O)/C=C/c2ccc(F)c(-c3cccs3)c2)cc1", "melting point": "242 to 244"}
{"smiles": "CN1c2cscc2C(=O)N(CCN2CCCC2)c2ccccc21", "melting point": "139 to 141"}
{"smiles": "NS(=O)(=O)c1c(Cl)cccc1CN1CCOC1=O", "melting point": "200 to 201"}
{"smiles": "COC(=S)NS(=O)(=O)c1ccc(Cl)cc1", "melting point": "129 to 130"}
{"smiles": "O=C(COC(=O)Cc1ccccc1Nc1c(Cl)cccc1Cl)NCCO[N+](=O)[O-]", "melting point": "81 to 83"}
{"smiles": "CS(=O)c1nnc(-c2ccc3occ(-c4cccc(OC(F)(F)F)c4)c3c2)o1", "note": "(centres undefined)", "melting point": "98 to 99"}
{"smiles": "COC(=O)c1ccc(-c2nc(-c3ccc(OC)cc3)co2)cc1", "melting point": "200 to 202"}
{"smiles": "CC(=O)c1ccc2c(c1)C1(C)C3(C)CCC(C3)C1(C)O2", "note": "(centres undefined)", "melting point": "140 to 142"}
{"smiles": "O=C(Nc1ccc(N2CCOCC2=O)cc1)[C@H]1CCCN1C(=O)Nc1ccc(Cl)cc1", "melting point": 228}
{"smiles": "COC(=O)c1c(C)cc2cc(OC)c(OC)cc2c1-c1ccnc(Br)c1", "melting point": "148 to 150"}
{"smiles": "COc1ccc(-c2c[nH]c(-c3nc(-c4ccco4)c(C(=O)C4CCOCC4)s3)n2)cc1", "melting point": "178 to 180"}
{"smiles": "CNc1nsnc1-c1c(Cl)cccc1Cl", "melting point": "145 to 146"}
{"smiles": "CC1CC(Nc2ccc(F)cc2)c2cc(F)ccc2N1", "note": "(centres undefined)", "melting point": "120 to 122"}
{"smiles": "COC(=O)C1=C(C)NC(C)=C(C(=O)O)[C@H]1c1cccc2nonc12", "melting point": 175}
{"smiles": "CCCCCc1ccc(OCC(O)CC#CCCCC(=O)O)cc1", "note": "(centres undefined)", "melting point": "54 to 57"}
